This is an account of results in publication PMC2923621, “Gliadin Peptide P31-43 Localises to Endocytic Vesicles and Interferes with Their Maturation” (PLoS ONE, 2010).

For one assay, the system named is CaCo-2 cells. Briefly: BrdU incorporation with or without Hrs-EGFP transfection. The assay is classed as cell-based. The note with it: serum starved 0.1% FCS, mean ± SD of three independent experiments. As to the method: We used the lipofectamine kit (Invitrogen, San Giuliano Milanese, Italy) according to the manufacturer's instructions to transfect all plasmids (Rab5-EGFP, Rab7-EGFP, Hrs-EGFP and Hrs-Ha). Briefly, CaCo-2 cells seeded on coverslips for 48 h were transfected with the plasmids for 16 h. The next day, transfected cells were pulsed and chased as described below or stained for Bromodeoxyuridine (BrdU) with a monoclonal antibody (Sigma-Aldrich, Milan, Italy) and total nuclei were identified by Hoechst staining. BrdU incorporation was performed as described elsewhere, briefly, CaCo-2 cells seeded on coverslips were transfected with Hrs-EGFP and serum starved in DMEM 0.1% foetal calf serum, antibiotics and glutamine for 30–48 h followed by 24 h treatment with gliadin peptides and/or growth factors. BrdU ([…], Boehringer) was added for one hour before fixing the samples. The cells fixed with paraformaldehyde and permeabilised with triton, were stained for BrdU as described and observed at the miscroscope (Axiophot microscope, Carl Zeiss MicroImaging, Inc.). Greater than 100 HRS-EGFP positive cells in several fields were evaluated for BrdU incorporation in each sample. The number of HRS-EGFP/BrdU positive cells was expressed as a proportion of the total Hoechst positive nuclei.

A further assay has as its target T1, Hrs (Homo sapiens, UniProt O14964).
T1 construct: to quantify the amount of endogenous Hrs present in each compartment; endogenous in cells; host or cells: CaCo-2
Put plainly: Subcellular fractionation and immunoblotting of endogenous Hrs. The assay is classed as cell-based. The note with it: CaCo-2 cells, western blot, three independent experiments. The procedure: Near-confluent Caco2 cells in a 90-mm dish were incubated with EGF and P31-43 at various times, after homogenization (10 mM Tris-HCl [pH 7.4], 1 mM EDTA, and the mixture of phosphatase and protease inhibitors) the nuclear fraction was eliminated by centrifugation. The soluble cytosolic and the membrane fraction were obtained by ultracentrifugation. Electrophoresis and immunoblotting were performed as described elsewhere. Briefly the proteins of the soluble cytosolic and the membrane fractions were separated by SDS-PAGE and incubated with anti-Hrs mouse monoclonal antibody (Alexis, Vinci-Biochem, Florence, Italy) or anti-EGFR rabbit polyclonal antibody (Cell Signaling Celbio, Milan Italy) or anti-tubulin mouse monoclonal antibody (SIGMA-Aldrich, Milan, Italy). Densitometric analysis was performed as before.

T1 sequence (O14964 whole entry): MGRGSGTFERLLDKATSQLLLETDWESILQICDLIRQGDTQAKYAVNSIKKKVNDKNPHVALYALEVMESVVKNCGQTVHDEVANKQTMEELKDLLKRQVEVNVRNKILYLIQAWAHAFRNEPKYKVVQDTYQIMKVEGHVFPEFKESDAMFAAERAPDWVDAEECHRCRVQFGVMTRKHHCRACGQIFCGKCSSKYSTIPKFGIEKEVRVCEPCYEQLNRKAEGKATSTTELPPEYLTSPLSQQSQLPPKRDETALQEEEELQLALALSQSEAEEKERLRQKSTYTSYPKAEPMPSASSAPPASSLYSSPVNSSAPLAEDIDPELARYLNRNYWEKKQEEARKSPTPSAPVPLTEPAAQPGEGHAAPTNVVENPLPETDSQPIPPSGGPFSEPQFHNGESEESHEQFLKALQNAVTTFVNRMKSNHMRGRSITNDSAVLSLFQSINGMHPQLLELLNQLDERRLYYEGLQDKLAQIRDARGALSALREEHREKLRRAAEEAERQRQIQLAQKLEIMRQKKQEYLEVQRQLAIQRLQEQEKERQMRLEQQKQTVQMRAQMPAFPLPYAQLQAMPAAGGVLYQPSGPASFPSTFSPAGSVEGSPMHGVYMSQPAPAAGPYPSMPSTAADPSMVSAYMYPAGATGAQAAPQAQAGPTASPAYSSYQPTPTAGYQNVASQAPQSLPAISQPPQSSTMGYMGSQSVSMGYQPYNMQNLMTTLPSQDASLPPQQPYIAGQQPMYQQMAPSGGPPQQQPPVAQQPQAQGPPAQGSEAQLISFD

Consider “EGF: growth factor used at 100 nanograms/ml as positive control”, for which the “BrdU incorporation (BrdU incorporating cells as percent of total cells)” value was 68.99%±7 in the assay with CaCo-2 cells (CaCo-2 cells not expressing Hrs, 24 h treatment (peptides 70 micrograms/ml, EGF 100 nanograms/ml)) and 66.25%±9.53% with CaCo-2 cells (Hrs-EGFP-transfected (Hrs-expressing) CaCo-2 cells, 24 h treatment). Moreover, the “Amount of Hrs in the membrane fraction” value with Hrs (normalised to EGFR) is given as “did not affect Hrs concentration in either compartment”. Besides, the “Amount of Hrs in the cytosolic fraction” value in the assay with Hrs (normalised to tubulin) is recorded as “did not affect Hrs concentration in either compartment”.
